Measured values reported in patent publication EP1715036A1, “Crystal structure of an Aurora-B/INCENP complex” (Boehringer Ingelheim International GmbH, priority 2005, dated 2006).

Columns and labels:
Assay type in all cases: biochemical
monomeric human Aurora-B = monomeric human Aurora-B (Homo sapiens, UniProt Q96GD4); test: kinase assay on monomeric human Aurora-B; conditions: assay conditions which allow similar signal/noise ratios
[1] = target: T1, wt-Aurora-B^60-361/INCENP^790-847 (Xenopus laevis, UniProt Q6DE08); test: radioactive kinase filterbinding assay, IC50 determination; conditions: wt enzyme complex at 5 nM; 100 µM ATP, 10 µM substrate peptide; spread printed ± 2 nM
T1 construct: GST (N, cleaved yes); made in house; host or cells: E. coli BL21(DE3) with pUBS520 helper plasmid
Procedure: (§1) The ATP-KM value for the G96V mutant (83 µM) is similar to the wt enzyme (61 µM). The kinase assays are run in the presence of 100 µM ATP using 10 µM of a substrate peptide (see Materials and Methods).
(§2) Hesperadin is a potent inhibitor of human Aurora-B (Hauf, 2003). To determine whether Hesperadin inhibits also xAurora-B /INCENP complexes, a kinase filterbinding assay is employed for IC50-determinations. Both, the G96V and the wt enzyme complex are used at 5 nM concentration in the assays.
(§3) Purified xAurora-B/INCENP is snap frozen and stored for further use at -80°C in desalting buffer (50 mM Tris/Cl pH 8.0, 150mM NaCl, 0.1mM EDTA, 0.03% Brij-35, 10% glycerol, 1mM DTT). xAurora-B/INCENP is incubated in the presence or absence of a test compound dilutions in DMSO prior to addition of substrate peptide and P33-γ-ATP. Samples without a test compound or without substrate peptide are used as high or low-controls, respectively. IC50 values are determined using Graph Pad Prism software.
(§4) For the filter-binding kinase assay (reaction volume 50 ul /well), 96-well PP-Microplates (Greiner, 655 201) are used. To 10µl compound in 25% DMSO are added 30µl PROTEIN-MIX (166 µM ATP,1x kinase buffer [50mM Tris/Cl pH7.5,25mM MgC12, 25mM NaCl], 10-20 ng xAurora-B/INCENP) followed by an 15 min incubation at room temperature (agitating, 350rpm). […]

[2] = target: T2, G96V-Aurora-B^60-361/INCENP^790-847 (Xenopus laevis, UniProt Q6DE08, G96V); test: as above; conditions: G96V enzyme complex at 5 nM; 100 µM ATP, 10 µM substrate peptide; spread printed ±13 nM
T2 construct: GST (N, cleaved yes); made in house; host or cells: E. coli BL21(DE3) with pUBS520 helper plasmid
Procedure: as §1, §2, §3, §4

T1 sequence (Q6DE08 60-361): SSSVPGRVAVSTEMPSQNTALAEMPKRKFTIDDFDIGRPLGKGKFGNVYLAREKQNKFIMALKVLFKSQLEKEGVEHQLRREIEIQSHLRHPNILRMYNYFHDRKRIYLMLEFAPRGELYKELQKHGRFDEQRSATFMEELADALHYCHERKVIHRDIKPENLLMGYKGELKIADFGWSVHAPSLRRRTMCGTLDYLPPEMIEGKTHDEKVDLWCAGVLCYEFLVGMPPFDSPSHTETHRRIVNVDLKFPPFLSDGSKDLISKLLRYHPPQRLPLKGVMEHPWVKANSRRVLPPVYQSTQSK
T1 sequence (O13024 790-847 partner limits assumed): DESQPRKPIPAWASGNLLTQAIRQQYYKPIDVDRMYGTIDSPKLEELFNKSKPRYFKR
T2 sequence (Q6DE08 60-361 G96V): as the sequence (Q6DE08 60-361) above, with G37V counted along it
T2 sequence (O13024 790-847 partner limits assumed): as the sequence (O13024 790-847 partner limits assumed) above
monomeric human Aurora-B, sequence (Q96GD4 whole entry): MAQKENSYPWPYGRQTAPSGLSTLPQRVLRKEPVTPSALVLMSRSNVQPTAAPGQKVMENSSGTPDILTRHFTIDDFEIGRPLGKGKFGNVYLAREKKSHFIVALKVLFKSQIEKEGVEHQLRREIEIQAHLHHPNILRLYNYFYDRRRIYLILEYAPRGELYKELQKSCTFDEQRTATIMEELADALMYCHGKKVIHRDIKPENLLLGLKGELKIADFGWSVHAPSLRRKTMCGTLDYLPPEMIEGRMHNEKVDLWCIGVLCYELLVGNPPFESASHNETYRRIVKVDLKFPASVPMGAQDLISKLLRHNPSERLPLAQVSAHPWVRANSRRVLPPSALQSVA

IC50 (monomeric human Aurora-B): 44 nM | IC50 [1]: 7 nM | IC50 [2]: 25 nM
Compound: CCS(=O)(=O)Nc1ccc2c(c1)/C(=C(/Nc1ccc(CN3CCCCC3)cc1)c1ccccc1)C(=O)N2 [Hesperadin]
